Reference: patent US8404651B2, “Compositions and methods for treating viral infections” (priority 2008, dated 2013)
Values joined by “and” are separate entries in the source; they are usually repeats but may differ in a detail not shown here. Identical values can stand only once.

What was measured:
[1] = tested on: HCV replicon cell line, AVA5; assay: Cytotoxicity by neutral red dye uptake in replicon cultures in parallel plates; details: Table 5, Compound 2 alone or in combination, genotype 1B
Protocol: (§1) Primary anti-HCV assay-Antiviral activity against HCV was assessed in a 3-day assay (Okuse, et al., 2005; Antiviral. Res. 65:23; Korba, et al., 2008, Antiviral Res. 77:56) using the stably-expressing HCV replicon cell line, AVA5 [sub-genomic (CON1), genotype 1b](Blight, et al., 2000, Science 290:1972) maintained as sub-confluent cultures on 96-well plates. Antiviral activity was determined by blot hybridization analysis of intracellular HCV RNA (normalized to the level of cellular B-actin RNA in each culture sample). Cytotoxicity was assessed by neutral red dye uptake in cultures maintained in parallel plates.
(§2) EC50, EC90, and CC50 values were calculated by linear regression analysis (MS EXCEL®, QUATTROPRO®) using data combined from all treated cultures Korba & Gerin, 1992, Antivir. Res. 19:55; Okuse, et al., 2005, Antivir. Res. 65:23). Standard deviations for EC50 and EC90 values were calculated from the standard errors generated by the regression analyses. […] The Selectivity index (S.I.) was calculated as CC50/EC50. Recombinant human interferon 2b (PBL laboratories, Inc.) was used as an assay control.
(§3) For each combination of agents, three concentration ratios, centered on the use of the compounds at equipotent antiviral concentrations, were used. A dilution series (six three-fold-concentration steps, beginning at the approximate EC90) was then generated with the concentration ratio of the two agents remaining the same in each dilution step. Toxicity analysis was performed as described above for the monotherapies. Analysis of drug interactions in the combination studies was determined by the use of the […] program (Biosoft, Inc., Cambridge, United Kingdom). This program evaluates synergy, additivity, or antagonism by use of several methodologies, including that of Chou and Talalay with a statistical analysis employing the Monte Carlo technique to provide confidence limits, fraction-affected-confidence interval (FA-CI) plots, isobolograms, and median-effect plots. (Belenkii, M. S. Schinazi, R. A method for the analysis of combination therapies with statistical analysis. Antiviral Res. 25, 11, 2005).

[2] = as above; details: human
Protocol: as §1, §2, §3

[3] = tested on: HCV replicon cell line, AVA5 [sub-genomic (CON1), genotype 1b]; assay: microbe, parasite or virus in culture; assay type: cell-based; details: Hepatitis C virus
Protocol: as §1, §2, §3

[4] = MTT cytotoxicity assay, HFF; assay type: cell-based; details: human, HFF cells, 24-hour incubation
Protocol: Cellular cytotoxicity profile of the compounds was carried out against a panel of cell lines. Standard MTT assays were performed in 96-well plates using the Promega CellTiter96 Non-radioactive Cell Proliferation Assay Kit in conjunction with a 96-well Plate Reader (ThermoMax, Molecular devices), and MDBK, Vero, and HFF cell lines (obtained from ATCC). Several controls were employed including the nucleoside analogs 3TC, AZT, and ddC, as well as, media without drugs. SDS was used as a positive cytotoxic control. The compounds were tested in triplicate at concentrations of 100, 300, and 1000 μM. Following a 24-hour incubation of cells with the test substance, the MTT assay was carried out.

TA1535 = assay: In vitro bacterial mutagenicity assay (pre-incubation), strain TA1535; details: for Number of revertants x1, x2, x3: individual plates
Protocol: (§4) Dispense 100 microliter aliquots of the appropriate bacterial cultures into sample tubes stored on ice. Dispense aliquots of the vehicle, positive controls or dose formulations into the appropriate sample tubes. 2 mL top Agar and HBT cap was added to the sample tube, inverted three times and poured into MG plate. The lid was replaced on the plate and left on a level surface to let the agar harden. The plates were incubated in an incubator for 48 to 72 h. The background lawn and count the number of revertants was checked for each plate.

WP2 uvrA = assay: In vitro bacterial mutagenicity assay (pre-incubation), strain WP2 uvrA; details: for Number of revertants x1, x2, x3: individual plates
Protocol: as §4

[5] = tested on: replicon cell line containing H/FL-Neo (genotype 1a (H77), full length construct); assay: Secondary anti-HCV assay: genotype 1a replicon, format of the primary assay; assay type: cell-based; details: Hepatitis C virus
Text: Res. 19:55; Okuse, et al., 2005, Antivir. Res. 65:23).
Secondary anti-HCV assay—This assay assesses activity against different HCV genotypes using the format described for the primary assay. Activity against the genotype 1b HCV is included for comparison. Currently available is a replicon cell line containing H/FL-Neo (genotype 1a (H77), full length construct) (Blight, et al., 2003, J. Virol. 77:3181).

[6] = In vitro cytotoxicity, HepG2; assay type: cell-based; details: human, HepG2 cells
[7] = TA1535, absence of S9, 50 μg/plate
[8] = TA1535, absence of S9, 158 μg/plate
[9] = TA1535, absence of S9, 500 μg/plate
[10] = TA1535, absence of S9, 1581 μg/plate
[11] = TA1535, absence of S9, 5000 μg/plate
[12] = TA1535, presence of S9, 50 μg/plate
[13] = TA1535, presence of S9, 158 μg/plate
[14] = TA1535, presence of S9, 500 μg/plate
[15] = TA1535, presence of S9, 1581 μg/plate
[16] = TA1535, presence of S9, 5000 μg/plate

Q: With `COC1C(OP(=O)(OC[C@H]2O[C@@H](n3cnc4c(N)ncnc43)CC2O)SCOC(=O)OC(C)C)[C@@H](CO)O[C@H]1n1ccc(=O)[nH]c1=O` (stereo partly drawn) [Compound 2, S-isopropylcarbonyloxymethyl thiophosphate (6k) of 3′dApsU2′OMe] as the compound, how does the CC50 [1] read?
A: > 100 µM

Q: And the CC50 at 3 day [2]?
A: > 100 µM

Q: And the EC50 ([3]; Ava5, read-out: EC50 HCV type 1B)?
A: 1 µM

Q: And the EC90 ([3]; Ava5, read-out: EC90 HCV type 1B)?
A: 6 µM

Q: And the CC50 at 24 h [4]?
A: > 1000 µM

Q: What about the “Number of revertants mean” value (TA1535; [7]) of the same compound?
A: 14

Q: And the “Number of revertants x1, x2, x3” value (TA1535; [7])?
A: 10 and 15 and 16

Q: What about the “Number of revertants mean” value (TA1535; [8]) of the same compound?
A: 23

Q: And the “Number of revertants x1, x2, x3” value (TA1535; [8])?
A: 21 (2×) and 26

Q: What about the “Number of revertants mean” value (TA1535; [9]) of the same compound?
A: 17

Q: And the “Number of revertants x1, x2, x3” value (TA1535; [9])?
A: 15 and 20 and 17

Q: And the “Number of revertants mean” value (TA1535; [10])?
A: 16

Q: And the “Number of revertants x1, x2, x3” value (TA1535; [10])?
A: 13 and 18 and 17

Q: What about the “Number of revertants mean” value (TA1535; [11]) of the same compound?
A: 18

Q: And the “Number of revertants x1, x2, x3” value (TA1535; [11])?
A: 18 (2×) and 17

Q: What about the “Number of revertants mean” value (TA1535; [12]) of the same compound?
A: 19

Q: What about the “Number of revertants x1, x2, x3” value (TA1535; [12]) of the same compound?
A: 21 and 15 and 20

Q: And the “Number of revertants mean” value (TA1535; [13])?
A: 16

Q: What about the “Number of revertants x1, x2, x3” value (TA1535; [13]) of the same compound?
A: 11 and 20 and 16

Q: And the “Number of revertants mean” value (TA1535; [14])?
A: 17

Q: And the “Number of revertants x1, x2, x3” value (TA1535; [14])?
A: 19 and 13 and 20

Q: And the “Number of revertants mean” value (TA1535; [15])?
A: 22

Q: What about the “Number of revertants x1, x2, x3” value (TA1535; [15]) of the same compound?
A: 27 and 21 and 17

Q: And the “Number of revertants mean” value (TA1535; [16])?
A: 17

Q: And the “Number of revertants x1, x2, x3” value (TA1535; [16])?
A: 18 and 16 (2×)

Q: What about the “Number of revertants mean” value (WP2 uvrA; absence of S9, 50 μg/plate) of the same compound?
A: 41

Q: What about the “Number of revertants x1, x2, x3” value (WP2 uvrA; absence of S9, 50 μg/plate) of the same compound?
A: 34 and 43 and 45

Q: And the “Number of revertants mean” value (WP2 uvrA; absence of S9, 158 μg/plate)?
A: 42

Q: What about the “Number of revertants x1, x2, x3” value (WP2 uvrA; absence of S9, 158 μg/plate) of the same compound?
A: 49 and 44 and 33

Q: What about the “Number of revertants mean” value (WP2 uvrA; absence of S9, 500 μg/plate) of the same compound?
A: 34

Q: And the “Number of revertants x1, x2, x3” value (WP2 uvrA; absence of S9, 500 μg/plate)?
A: 39 and 26 and 38

Q: What about the “Number of revertants mean” value (WP2 uvrA; absence of S9, 1581 μg/plate) of the same compound?
A: 50

Q: And the “Number of revertants x1, x2, x3” value (WP2 uvrA; absence of S9, 1581 μg/plate)?
A: 44 and 56 and 51

Q: What about the “Number of revertants mean” value (WP2 uvrA; absence of S9, 5000 μg/plate) of the same compound?
A: 52

Q: What about the “Number of revertants x1, x2, x3” value (WP2 uvrA; absence of S9, 5000 μg/plate) of the same compound?
A: 62 and 39 and 54

Q: What about the “Number of revertants mean” value (WP2 uvrA; presence of S9, 50 μg/plate) of the same compound?
A: 44

Q: And the “Number of revertants x1, x2, x3” value (WP2 uvrA; presence of S9, 50 μg/plate)?
A: 48 and 43 and 42

Q: What about the “Number of revertants mean” value (WP2 uvrA; presence of S9, 158 μg/plate) of the same compound?
A: 43

Q: And the “Number of revertants x1, x2, x3” value (WP2 uvrA; presence of S9, 158 μg/plate)?
A: 46 and 43 and 40

Q: What about the “Number of revertants mean” value (WP2 uvrA; presence of S9, 500 μg/plate) of the same compound?
A: 41

Q: And the “Number of revertants x1, x2, x3” value (WP2 uvrA; presence of S9, 500 μg/plate)?
A: 36 and 46 and 40

Q: What about the “Number of revertants mean” value (WP2 uvrA; presence of S9, 1581 μg/plate) of the same compound?
A: 47

Q: And the “Number of revertants x1, x2, x3” value (WP2 uvrA; presence of S9, 1581 μg/plate)?
A: 52 and 43 and 45

Q: What about the “Number of revertants mean” value (WP2 uvrA; presence of S9, 5000 μg/plate) of the same compound?
A: 62

Q: And the “Number of revertants x1, x2, x3” value (WP2 uvrA; presence of S9, 5000 μg/plate)?
A: 61 and 60 and 65

Q: And the EC50 ([5]; read-out: EC50 HCV Type 1A)?
A: 2.2 µM

Q: And the EC90 ([5]; read-out: EC90 HCV type 1A)?
A: 8 µM

Q: And the CC50 [6]?
A: > 100 µM
